Results taken from patent US9371265B2, “Compositions and methods related to inhibitors of JAK kinase” (EP PHARMA, INC., priority 2012, dated 2016).

What was measured:
p38 MAP kinase = assay: Phospho-p38 in SU-DHL-1 cells (Luminex multiplex); format: cell-based, human; conditions: 24 hours
Method: FIGS. 8A-8F. Effect of EP009 on ALCL cells is mediated through selective activation of ERK1/2 and JNK1/2 stress signaling pathways, and inhibition of p70 S6 kinase growth signaling pathways. SU-DHL-1 cells were treated with vehicle (PBS) or increasing amounts of EP009 (0-50 μM) for 24 hours. Cells were then lysed, clarified, and subjected to Luminex multiplex analysis to detect phosphorylated (A) ERK1/2, (B) JNK1/2, (C) p70 S6 kinase, (D) IκBα, (E) CREB, and (F) p38. Values represent mean fluorescence intensity (MFI) normalized to corresponding GAPDH MFI, while error bars represent the standard deviation (n=2). Representative data from two independent experiments are shown. Statistical significance was determined using Student's t-test. (*, p<0.05).
The MILLIPLEX MAP 8-plex Multi-Pathway Signaling Phosphoprotein kit (Millipore) was used to detect phosphorylated ERK1/2 (Thr185/Tyr187), STAT3 (Ser727), JNK1/2 (Thr183/Tyr185), p70 S6 kinase (Thr412), IκBα (Ser32), STAT5A/B (Tyr694/699), CREB (Ser133), and p38 (Thr180/Tyr182). The MILLIPLEX MAP 5-plex STAT Phosphoprotein kit (Millipore) was used to detect phosphorylated STAT1 (Tyr701), STAT2 (Tyr690), STAT3 (Tyr705), STAT5A/B (Tyr694/699), and STAT6 (Tyr641). The MILLIPLEX MAP Human Apoptosis 3-plex kit (Millipore) was used to detect cleaved PARP, cleaved Caspase 3, and total GAPDH for protein normalization.

BRAF(V600E) = BRAF(V600E) (Homo sapiens, UniProt P15056, V600E); assay: Kinase panel: BRAF(V600E); format: biochemical; conditions: 10 μM EP009
Sequence of BRAF(V600E) (P15056 whole entry V600E): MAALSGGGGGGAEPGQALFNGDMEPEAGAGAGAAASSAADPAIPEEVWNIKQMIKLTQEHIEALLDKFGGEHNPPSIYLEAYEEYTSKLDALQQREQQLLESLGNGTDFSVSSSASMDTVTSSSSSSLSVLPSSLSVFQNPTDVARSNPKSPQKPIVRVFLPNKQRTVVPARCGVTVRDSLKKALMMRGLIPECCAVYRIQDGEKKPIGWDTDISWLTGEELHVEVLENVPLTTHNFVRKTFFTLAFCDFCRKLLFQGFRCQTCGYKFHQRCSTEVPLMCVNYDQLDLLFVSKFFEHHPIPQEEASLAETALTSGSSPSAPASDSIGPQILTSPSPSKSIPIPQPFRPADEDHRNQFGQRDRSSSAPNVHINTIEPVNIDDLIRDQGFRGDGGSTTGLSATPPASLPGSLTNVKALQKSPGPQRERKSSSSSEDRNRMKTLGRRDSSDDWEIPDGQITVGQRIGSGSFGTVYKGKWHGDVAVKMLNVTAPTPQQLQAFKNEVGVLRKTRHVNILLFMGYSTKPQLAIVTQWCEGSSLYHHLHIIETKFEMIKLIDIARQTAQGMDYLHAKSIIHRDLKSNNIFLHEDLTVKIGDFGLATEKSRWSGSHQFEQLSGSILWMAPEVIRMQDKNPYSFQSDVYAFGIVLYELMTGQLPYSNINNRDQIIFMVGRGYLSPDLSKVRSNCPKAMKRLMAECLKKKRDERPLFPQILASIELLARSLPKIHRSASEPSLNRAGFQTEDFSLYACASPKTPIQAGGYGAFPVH
Method: (§1) Achieving JAK3 selectivity remains a significant challenge in the development of new small molecules for the treatment of cancer and immune-derived diseases. As such, the inventors employed cell-based screening assays of small-molecule libraries based upon the chemical scaffold of the established JAK3 inhibitor NC1153 (Stepkowski et al., J Immunol. (2005), 175(7):4236-4246) EP009 (FIG. 2A) was selected as a lead compound due to improved intrinsic stability (>95% purity in various solvents at 37° C. for 24 hours; FIG. 3) and high-degree of JAK3 selectivity. To test JAK3 versus JAK2 specificity of EP009, the IL-2/JAK3-dependent Kit225, and IL-3/JAK2-dependent BaF/3 cell lines were used. Kit225 and BaF/3 cells growing in the presence of IL-2 or IL-3, respectively, were treated with ascending concentrations of EP009 for 12 hours and cellular JAK3 and JAK2 tyrosine phosphorylation levels detected by Western blot analysis (FIGS. 2B and 2C). Following densitometric analysis, EP009 was determined to dose-dependently reduce IL-2-mediated JAK3 tyrosine phosphorylation with a cellular 50% inhibitory concentration (IC50) between 10 and 20 μM (FIG. 2B). […] To globally evaluate specificity, the inhibitory activity of EP009 was measured against a panel of protein kinases distributed throughout the kinome using the scanEDGE profiling service (KINOMEscan). […]

CDK2 = CDK2 (Homo sapiens, UniProt P24941); assay: Kinase panel: CDK2; format: biochemical; conditions: 10 μM EP009
Method: as §1

EPHA2 = EPHA2 (Homo sapiens, UniProt P29317); assay: Kinase panel: EPHA2; format: biochemical; conditions: 10 μM EP009
Sequence of EPHA2 (P29317 24-976): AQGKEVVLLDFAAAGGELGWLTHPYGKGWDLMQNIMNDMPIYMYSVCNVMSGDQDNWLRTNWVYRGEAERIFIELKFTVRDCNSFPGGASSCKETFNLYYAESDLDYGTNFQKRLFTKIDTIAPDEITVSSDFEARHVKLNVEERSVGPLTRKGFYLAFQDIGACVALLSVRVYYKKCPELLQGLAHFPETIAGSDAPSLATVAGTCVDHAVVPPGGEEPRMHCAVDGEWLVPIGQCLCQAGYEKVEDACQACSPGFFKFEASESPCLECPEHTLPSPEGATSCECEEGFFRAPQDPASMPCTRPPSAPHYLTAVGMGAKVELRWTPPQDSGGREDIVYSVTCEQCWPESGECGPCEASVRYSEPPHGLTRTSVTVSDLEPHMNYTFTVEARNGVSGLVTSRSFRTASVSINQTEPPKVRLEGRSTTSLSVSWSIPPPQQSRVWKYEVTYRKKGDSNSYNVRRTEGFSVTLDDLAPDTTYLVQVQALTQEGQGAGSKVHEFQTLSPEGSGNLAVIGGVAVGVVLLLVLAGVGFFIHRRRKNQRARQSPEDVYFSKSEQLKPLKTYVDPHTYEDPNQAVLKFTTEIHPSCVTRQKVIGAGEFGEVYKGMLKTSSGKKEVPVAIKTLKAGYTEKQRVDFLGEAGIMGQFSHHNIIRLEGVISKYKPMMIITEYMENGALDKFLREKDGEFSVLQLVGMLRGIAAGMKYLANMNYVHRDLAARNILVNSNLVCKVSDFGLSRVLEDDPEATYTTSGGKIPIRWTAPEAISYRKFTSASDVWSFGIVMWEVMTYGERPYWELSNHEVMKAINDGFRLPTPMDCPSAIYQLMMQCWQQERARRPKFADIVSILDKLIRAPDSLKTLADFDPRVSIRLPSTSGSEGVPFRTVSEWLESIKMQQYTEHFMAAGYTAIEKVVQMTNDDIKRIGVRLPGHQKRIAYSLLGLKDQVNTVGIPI
Method: as §1

INSR = INSR (Homo sapiens, UniProt P06213); assay: Kinase panel: INSR; format: biochemical; conditions: 10 μM EP009
Sequence of INSR (P06213 28-1382): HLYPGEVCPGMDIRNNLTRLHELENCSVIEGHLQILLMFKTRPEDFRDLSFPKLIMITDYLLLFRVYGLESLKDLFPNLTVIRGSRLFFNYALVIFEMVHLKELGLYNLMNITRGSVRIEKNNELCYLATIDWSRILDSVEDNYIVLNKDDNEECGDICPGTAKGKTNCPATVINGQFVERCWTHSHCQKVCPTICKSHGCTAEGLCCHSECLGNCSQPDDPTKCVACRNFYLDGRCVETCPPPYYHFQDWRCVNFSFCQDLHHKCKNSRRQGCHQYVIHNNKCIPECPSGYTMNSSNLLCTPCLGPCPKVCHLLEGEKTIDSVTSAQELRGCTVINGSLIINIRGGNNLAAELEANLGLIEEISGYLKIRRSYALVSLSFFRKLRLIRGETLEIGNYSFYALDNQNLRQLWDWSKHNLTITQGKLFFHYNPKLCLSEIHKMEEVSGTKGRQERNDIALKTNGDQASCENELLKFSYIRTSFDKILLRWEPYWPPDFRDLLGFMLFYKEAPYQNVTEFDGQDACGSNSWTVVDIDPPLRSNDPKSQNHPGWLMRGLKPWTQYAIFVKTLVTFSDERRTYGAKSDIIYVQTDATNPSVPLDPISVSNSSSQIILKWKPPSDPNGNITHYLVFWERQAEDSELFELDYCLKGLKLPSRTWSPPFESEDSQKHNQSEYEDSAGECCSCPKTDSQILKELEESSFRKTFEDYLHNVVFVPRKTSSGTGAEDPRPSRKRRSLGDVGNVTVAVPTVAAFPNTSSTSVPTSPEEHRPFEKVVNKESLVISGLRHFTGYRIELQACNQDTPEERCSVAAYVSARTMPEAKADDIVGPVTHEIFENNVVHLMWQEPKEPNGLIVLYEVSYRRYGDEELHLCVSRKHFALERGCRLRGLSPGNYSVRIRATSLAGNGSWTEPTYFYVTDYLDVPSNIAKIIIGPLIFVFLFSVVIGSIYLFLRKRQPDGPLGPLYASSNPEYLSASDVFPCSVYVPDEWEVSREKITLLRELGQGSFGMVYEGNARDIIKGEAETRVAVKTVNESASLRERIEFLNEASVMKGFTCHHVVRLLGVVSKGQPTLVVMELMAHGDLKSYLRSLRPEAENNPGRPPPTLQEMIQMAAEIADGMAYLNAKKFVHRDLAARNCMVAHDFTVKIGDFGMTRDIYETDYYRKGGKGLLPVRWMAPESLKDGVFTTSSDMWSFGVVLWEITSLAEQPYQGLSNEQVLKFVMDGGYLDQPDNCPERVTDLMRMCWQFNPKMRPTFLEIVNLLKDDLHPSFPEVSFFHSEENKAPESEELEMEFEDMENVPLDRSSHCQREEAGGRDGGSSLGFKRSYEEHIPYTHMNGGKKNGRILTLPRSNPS
Method: as §1

p38-beta = p38-beta (Homo sapiens, UniProt Q15759); assay: Kinase panel: p38-beta; format: biochemical; conditions: 10 μM EP009
Sequence of p38-beta (Q15759 whole entry): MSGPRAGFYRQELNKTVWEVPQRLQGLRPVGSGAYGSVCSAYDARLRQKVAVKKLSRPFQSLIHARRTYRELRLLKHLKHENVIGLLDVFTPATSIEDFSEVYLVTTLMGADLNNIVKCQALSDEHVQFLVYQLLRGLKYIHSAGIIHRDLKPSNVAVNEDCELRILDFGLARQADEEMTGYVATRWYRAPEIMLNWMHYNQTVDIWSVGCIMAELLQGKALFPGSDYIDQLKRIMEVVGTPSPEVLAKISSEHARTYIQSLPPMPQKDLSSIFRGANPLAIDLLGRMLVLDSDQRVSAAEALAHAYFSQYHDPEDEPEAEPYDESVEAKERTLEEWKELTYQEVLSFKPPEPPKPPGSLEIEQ
Method: as §1

## C=C1CCCCCCCCCC(CO)C1=O (stereo not drawn) [EP009, 2-(Hydroxymethyl)-12-methylenecyclododecanone]
p38 MAP kinase
  p38 MAP kinase phosphorylation status: No statistically significant change
BRAF(V600E)
  Kinase Activity (% of Control): 76 % of Control
CDK2
  Kinase Activity (% of Control): 98 % of Control
EPHA2
  Kinase Activity (% of Control): 100 % of Control
INSR
  Kinase Activity (% of Control): 100 % of Control
p38-beta
  Kinase Activity (% of Control): 96 % of Control
